Patent US9957251B2 (Takeda Pharmaceutical Company Limited, priority 2014, dated 2018)

How the values were obtained:
CDK8/CycC = biological target: T1, CDK8/CycC (Homo sapiens, UniProt P49336); experiment: CDK8 inhibitory activity (TR-FRET, Kinase Tracer-236 displacement); assay type: binding; conditions: 1 μM of the test compound; for inhibition at 1 µM: read-out: Percent inhibition of CDK8 activity (%)
T1 construct: purchased Carna Biosciences
In short: (§1)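 Binding assay measuring displacement of Kinase Tracer-236 (60 nM in the added mix) by compound, using Eu-cryptate anti-GST antibody with CDK8/CycC (84 ng/mL) or CDC2L6/CycC (87 ng/mL) solutions. After 1 h at room temperature, TR-FRET read at 615 and 665 nm (excitation 320 nm).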

CDK19 (CDC2L6/CycC) = biological target: T2, CDK19 (CDC2L6/CycC) (Homo sapiens, UniProt Q9BWU1); experiment: CDK19 inhibitory activity (TR-FRET, Kinase Tracer-236 displacement); assay type: binding; conditions: 1 μM of the test compound; for inhibition at 1 µM: read-out: Percent inhibition of CDK19 activity (%)
T2 construct: purchased Carna Biosciences
T2 sequence (Q9BWU1 whole entry): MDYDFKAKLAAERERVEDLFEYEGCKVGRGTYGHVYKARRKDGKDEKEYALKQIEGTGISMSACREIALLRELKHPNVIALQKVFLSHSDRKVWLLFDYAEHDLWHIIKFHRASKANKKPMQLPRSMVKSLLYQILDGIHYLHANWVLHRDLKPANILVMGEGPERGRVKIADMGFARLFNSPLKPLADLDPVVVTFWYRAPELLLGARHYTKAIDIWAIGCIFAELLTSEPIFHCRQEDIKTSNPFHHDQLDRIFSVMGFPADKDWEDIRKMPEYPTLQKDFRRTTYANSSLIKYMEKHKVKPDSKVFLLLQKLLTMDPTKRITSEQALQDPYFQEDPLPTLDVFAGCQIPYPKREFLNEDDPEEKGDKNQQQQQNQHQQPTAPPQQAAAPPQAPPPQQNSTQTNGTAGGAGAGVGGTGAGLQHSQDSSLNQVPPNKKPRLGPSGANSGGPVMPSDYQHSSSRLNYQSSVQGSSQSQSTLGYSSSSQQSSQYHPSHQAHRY
T2 sequence (P24863 whole entry partner): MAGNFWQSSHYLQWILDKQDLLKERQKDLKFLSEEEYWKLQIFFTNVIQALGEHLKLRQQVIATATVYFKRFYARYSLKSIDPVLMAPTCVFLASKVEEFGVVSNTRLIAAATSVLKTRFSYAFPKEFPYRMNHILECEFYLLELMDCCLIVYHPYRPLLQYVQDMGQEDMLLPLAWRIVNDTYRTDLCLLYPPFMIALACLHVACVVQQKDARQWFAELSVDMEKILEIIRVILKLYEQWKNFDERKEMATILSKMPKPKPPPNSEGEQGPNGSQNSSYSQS
In short: as §1

[1] = tested on: human multiple myeloma RPMI8226 cells; experiment: Inhibitory activity against human multiple myeloma RPMI8226 cell growth (CellTiter-Glo); assay type: cell-based; conditions: 1 μM of the test compound, cultured for 8 days; for inhibition at 1 µM: Homo sapiens, RPMI-8226, 192 h, read-out: Percent inhibition of RPMI8226 cell growth (%)
In short: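 RPMI8226 cells (300/well) cultured 1 day at 37 °C, 5% CO2, then given compound at 1 μM for 8 days. ATP luminescence (CellTiter-Glo) read; percent inhibition relative to 0.1% DMSO wells.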

T1 sequence (P49336 whole entry): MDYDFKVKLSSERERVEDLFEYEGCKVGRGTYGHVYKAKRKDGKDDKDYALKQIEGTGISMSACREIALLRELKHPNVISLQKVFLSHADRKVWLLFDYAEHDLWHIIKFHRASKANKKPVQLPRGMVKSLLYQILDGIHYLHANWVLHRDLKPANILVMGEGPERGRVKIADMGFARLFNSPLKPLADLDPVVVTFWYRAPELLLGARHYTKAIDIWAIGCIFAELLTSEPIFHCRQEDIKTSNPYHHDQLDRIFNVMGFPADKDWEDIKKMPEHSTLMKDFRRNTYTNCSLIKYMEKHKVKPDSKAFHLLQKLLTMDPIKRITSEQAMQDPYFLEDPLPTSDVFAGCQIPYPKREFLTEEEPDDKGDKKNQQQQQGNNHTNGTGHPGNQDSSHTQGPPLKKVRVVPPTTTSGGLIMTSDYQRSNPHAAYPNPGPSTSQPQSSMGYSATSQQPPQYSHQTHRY
T1 sequence (P24863 whole entry partner): as the sequence (P24863 whole entry partner) above

inhibition at 1 µM (CDK8/CycC) [%] | inhibition at 1 µM (CDK19 (CDC2L6/CycC)) [%] | Percent inhibition of CDK8 activity (%) (CDK8/CycC; methanesulfonate, 1 µM) | Percent inhibition of CDK19 activity (%) (CDK19 (CDC2L6/CycC); methanesulfonate, 1 µM) | SMILES | inhibition at 1 µM [1] [%] | Percent inhibition of RPMI8226 cell growth (%) ([1]; methanesulfonate, 1 µM)
102 | 98 |  |  | Cn1cc(-c2ccncc2/C=C/C(=O)Nc2ccc(Cn3ccnc3)cc2)cn1 [Example 275, (2E)-N-(4-(1H-Imidazol-1-ylmethyl)phenyl)-3-(4-(1-methyl-1H-pyrazol-4-yl)pyridin-3-yl)acrylamide] | 64 | 
100 | 99 |  |  | O=C(/C=C/c1cnccc1-c1cn[nH]c1)Nc1ccc(CN2CCOCC2)cc1 [Example 33, (2E)-N-(4-(morpholin-4-ylmethyl)phenyl)-3-(4-(1H-pyrazol-4-yl)pyridin-3-yl)acrylamide] | 61 | 
98 | 102 |  |  | O=C(/C=C/c1cnccc1-c1cnn(C2CC2)c1)Nc1ccc2c(c1)CN(CC(F)(F)F)CC2 [Example 247, (2E)-3-(4-(1-Cyclopropyl-1H-pyrazol-4-yl)pyridin-3-yl)-N-(2-(2,2,2-trifluoroethyl)-1,2,3,4-tetrahydroisoquinolin-7-yl)acrylamide] | 63 | 
103 | 101 |  |  | O=C(/C=C/c1cnccc1-c1cnn(C2CC2)c1)Nc1ccc2c(c1)CN(CC(F)(F)F)C2 [Example 319, (2E)-3-(4-(1-Cyclopropyl-1H-pyrazol-4-yl)pyridin-3-yl)-N-(2-(2,2,2-trifluoroethyl)-2,3-dihydro-1H-isoindol-5-yl)acrylamide] | 47 | 
100 | 97 |  |  | Cn1ccc2cc(NC(=O)/C=C/c3cnccc3-c3cnn(C4CC4)c3)ccc21 [Example 251, (2E)-3-(4-(1-Cyclopropyl-1H-pyrazol-4-yl)pyridin-3-yl)-N-(1-methyl-1H-indol-5-yl)acrylamide] | 61 | 
98 | 99 |  |  | Cn1cc(-c2ccncc2/C=C/C(=O)Nc2ccc(CCC(F)(F)F)cc2)cn1 [Example 124, (2E)-3-(4-(1-methyl-1H-pyrazol-4-yl)pyridin-3-yl)-N-(4-(3,3,3-trifluoropropyl)phenyl)acrylamide] | 53 | 
 |  | 102 | 101 | O=C(/C=C/c1cnccc1-c1cnn(C2CC2)c1)Nc1ccc(CN2CC(F)(F)C2)cc1 [Example 375, (2E)-3-(4-(1-Cyclopropyl-1H-pyrazol-4-yl)pyridin-3-yl)-N-(4-((3,3-difluoroazetidin-1-yl)methyl)phenyl)acrylamide methanesulfonate] |  | 70
107 | 99 |  |  | O=C(/C=C/c1cnccc1-c1cnn(C2CC2)c1)Nc1ccc(CN2CC(F)C2)cc1 [Example 365, (2E)-3-(4-(1-Cyclopropyl-1H-pyrazol-4-yl)pyridin-3-yl)-N-(4-((3-fluoroazetidin-1-yl)methyl)phenyl)acrylamide] | 58 | 
100 | 100 |  |  | COCc1ccc(NC(=O)/C=C/c2cnccc2-c2cnn(C)c2)cc1 [Example 239, (2E)-N-(4-(methoxymethyl)phenyl)-3-(4-(1-methyl-1H-pyrazol-4-yl)pyridin-3-yl)acrylamide] | 65 | 
96 | 97 |  |  | Cn1cc(-c2ccncc2/C=C/C(=O)Nc2ccc(CNC3CC(F)(F)C3)cc2)cn1 [Example 89, (2E)-N-(4-(((3,3-difluorocyclobutyl)amino)methyl)phenyl)-3-(4-(1-methyl-1H-pyrazol-4-yl)pyridin-3-yl)acrylamide] | 63 | 
96 | 101 |  |  | CC(=O)n1cc(-c2ccncc2/C=C/C(=O)Nc2ccc(CN3CCOCC3)cc2)cn1 [Example 218, (2E)-3-(4-(1-Acetyl-1H-pyrazol-4-yl)pyridin-3-yl)-N-(4-(morpholin-4-ylmethyl)phenyl)acrylamide] | 65 | 
97 | 97 |  |  | Cn1cc(-c2ccncc2/C=C/C(=O)Nc2ccc(CN3CCC4(CC3)COC4)cc2)cn1 [Example 84, (2E)-3-(4-(1-methyl-1H-pyrazol-4-yl)pyridin-3-yl)-N-(4-(2-oxa-7-azaspiro[3.5]non-7-ylmethyl)phenyl)acrylamide] | 60 | 
102 | 97 |  |  | Cn1cc(-c2ccncc2/C=C/C(=O)Nc2ccc(Cn3cccn3)cc2)cn1 [Example 274, (2E)-3-(4-(1-methyl-1H-pyrazol-4-yl)pyridin-3-yl)-N-(4-(1H-pyrazol-1-ylmethyl)phenyl)acrylamide] | 53 | 
100 | 103 |  |  | CC(C)(O)Cc1ccc(NC(=O)/C=C/c2cnccc2-c2cnn(C3CC3)c2)cc1 [Example 143, (2E)-3-(4-(1-cyclopropyl-1H-pyrazol-4-yl)pyridin-3-yl)-N-(4-(2-hydroxy-2-methylpropyl)phenyl)acrylamide] | 61 | 

Second part, the compound before the results:

SMILES | inhibition at 1 µM (CDK8/CycC) [%] | inhibition at 1 µM (CDK19 (CDC2L6/CycC)) [%] | Percent inhibition of CDK8 activity (%) (CDK8/CycC; methanesulfonate, 1 µM) | Percent inhibition of CDK19 activity (%) (CDK19 (CDC2L6/CycC); methanesulfonate, 1 µM) | inhibition at 1 µM [1] [%] | Percent inhibition of RPMI8226 cell growth (%) ([1]; methanesulfonate, 1 µM)
Cn1cc(-c2ccncc2/C=C/C(=O)Nc2ccc(CN3CCOCC3)c(O)c2)cn1 [Example 148, (2E)-N-(3-Hydroxy-4-(morpholin-4-ylmethyl)phenyl)-3-(4-(1-methyl-1H-pyrazol-4-yl)pyridin-3-yl)acrylamide] | 97 | 99 |  |  | 54 | 
Cn1cc(-c2ccncc2/C=C/C(=O)Nc2ccc3c(c2)OCC3)cn1 [Example 116, (2E)-N-(2,3-dihydro-1-benzofuran-6-yl)-3-(4-(1-methyl-1H-pyrazol-4-yl)pyridin-3-yl)acrylamide] | 100 | 94 |  |  | 55 | 
O=C(/C=C/c1cnccc1-c1ccns1)Nc1ccc(CN2CCOCC2)cc1 [Example 196, (2E)-N-(4-(morpholin-4-ylmethyl)phenyl)-3-(4-(1,2-thiazol-5-yl)pyridin-3-yl)acrylamide] | 101 | 98 |  |  | 54 | 
O=C(/C=C/c1cnccc1-c1ccc2ncn(CC3CC3)c2c1)Nc1ccc(CN2CCOCC2)cc1 [Example 283, (2E)-3-(4-(1-(Cyclopropylmethyl)-1H-benzimidazol-6-yl)pyridin-3-yl)-N-(4-(morpholin-4-ylmethyl)phenyl)acrylamide] | 95 | 96 |  |  | 60 | 
Cn1cc2cc(-c3ccncc3/C=C/C(=O)Nc3ccc(CN4CCOCC4)cc3)ccc2n1 [Example 261, (2E)-3-(4-(2-methyl-2H-indazol-5-yl)pyridin-3-yl)-N-(4-(morpholin-4-ylmethyl)phenyl)acrylamide] | 97 | 93 |  |  | 52 | 
Cn1cc(-c2ccncc2/C=C/C(=O)Nc2ccc(Oc3ccncc3)cc2)cn1 [Example 137, (2E)-3-(4-(1-methyl-1H-pyrazol-4-yl)pyridin-3-yl)-N-(4-(pyridin-4-yloxy)phenyl)acrylamide] | 95 | 96 |  |  | 54 | 
O=C(/C=C/c1cnccc1-c1cnn(Cc2ccccn2)c1)Nc1ccc(CN2CCOCC2)cc1 [Example 47, (2E)-N-(4-(morpholin-4-ylmethyl)phenyl)-3-(4-(1-(pyridin-2-ylmethyl)-1H-pyrazol-4-yl)pyridin-3-yl)acrylamide] | 101 | 98 |  |  | 57 | 
O=C(/C=C/c1cnccc1-c1cnsc1)Nc1ccc(CN2CCOCC2)cc1 [Example 145, (2E)-N-(4-(Morpholin-4-ylmethyl)phenyl)-3-(4-(1,2-thiazol-4-yl)pyridin-3-yl)acrylamide] | 90 | 94 |  |  | 51 | 
Cn1cc(-c2ccncc2/C=C/C(=O)Nc2ccc3c(c2)CCC3=O)cn1 [Example 176, (2E)-3-(4-(1-methyl-1H-pyrazol-4-yl)pyridin-3-yl)-N-(1-oxo-2,3-dihydro-1H-inden-5-yl)acrylamide] | 92 | 87 |  |  | 54 | 
Cn1cc(-c2c(F)cncc2/C=C/C(=O)Nc2ccc3c(c2)CN(CC(F)(F)F)C3)cn1 [Example 327, (2E)-3-(5-Fluoro-4-(1-methyl-1H-pyrazol-4-yl)pyridin-3-yl)-N-(2-(2,2,2-trifluoroethyl)-2,3-dihydro-1H-isoindol-5-yl)acrylamide] | 106 | 104 |  |  | 56 | 
O=C(/C=C/c1cncc(F)c1-c1cnn(C2CC2)c1)Nc1ccc(CN2CC3CC(C2)O3)cc1 [Example 336, (2E)-3-(4-(1-Cyclopropyl-1H-pyrazol-4-yl)-5-fluoropyridin-3-yl)-N-(4-(6-oxa-3-azabicyclo[3.1.1]hept-3-ylmethyl)phenyl)acrylamide] | 102 | 101 |  |  | 59 | 
Cn1cc(-c2ccncc2/C=C/C(=O)Nc2ccc3c(c2)OCCO3)cn1 [Example 168, (2E)-N-(2,3-dihydro-1,4-benzodioxin-6-yl)-3-(4-(1-methyl-1H-pyrazol-4-yl)pyridin-3-yl)acrylamide] | 100 | 97 |  |  | 59 | 
Cn1cc(-c2ccncc2/C=C/C(=O)Nc2ccc3c(c2)CCO3)cn1 [Example 172, (2E)-N-(2,3-dihydro-1-benzofuran-5-yl)-3-(4-(1-methyl-1H-pyrazol-4-yl)pyridin-3-yl)acrylamide] | 96 | 95 |  |  | 55 | 
